Assay: Hemolytic activity in mouse erythrocytes assessed as haemoglobin release at 10 uM incubated for 1 hrs by microplate reader method
Assay type: toxicity, cell-based, Erythrocyte
Conditions: read-out: Activity

CC[C@H](C)[C@H](NC(=O)CN)C(=O)NCC(=O)N[C@@H](C)C(=O)N[C@H](C(=O)N[C@@H](CC(C)C)C(=O)N[C@@H](CCCCN)C(=O)N[C@H](C(=O)N[C@@H](CC(C)C)C(=O)N[C@H](C(=O)N[C@H](C(=O)NCC(=O)N[C@@H](CC(C)C)C(=O)N1CCC[C@H]1C(=O)N[C@@H](C)C(=O)N[C@@H](CC(C)C)C(=O)N[C@H](C(=O)N[C@@H](CO)C(=O)N[C@@H](Cc1c[nH]c2ccccc12)C(=O)N[C@H](C(=O)N[C@@H](CCCCN)C(=O)N[C@@H](CCCNC(=N)N)C(=O)N[C@@H](CCCCN)C(=O)N[C@@H](CCCNC(=N)N)C(=O)N[C@@H](CCC(N)=O)C(=O)N[C@@H](CCC(N)=O)C(N)=O)[C@@H](C)CC)[C@@H](C)CC)[C@@H](C)O)[C@@H](C)O)C(C)C)C(C)C [MELITTIN]
hemolysis at 1 h, 10 µM: 58.8%

Source: ChEMBL document CHEMBL5338731, “Development of Neuropeptide Hemokinin-1 Analogues with Antimicrobial and Wound-Healing Activity” (J Med Chem, 2023)
